Results: patent publication US9487515B2, “Compounds modulating c-fms and/or c-kit activity and uses therefor” (Plexxikon Inc., priority 2006, dated 2016)

Molecular target: c-kit (Homo sapiens, UniProt P10721)
Assay: c-kit assays of Examples 40 and 41 (AlphaScreen kinase assays at 10 and 100 μM ATP, 33P-ATP filter assay, M-07e SCF-stimulated proliferation and phosphorylation)

Sequence of c-kit (P10721 with tags, fused parts or gaps): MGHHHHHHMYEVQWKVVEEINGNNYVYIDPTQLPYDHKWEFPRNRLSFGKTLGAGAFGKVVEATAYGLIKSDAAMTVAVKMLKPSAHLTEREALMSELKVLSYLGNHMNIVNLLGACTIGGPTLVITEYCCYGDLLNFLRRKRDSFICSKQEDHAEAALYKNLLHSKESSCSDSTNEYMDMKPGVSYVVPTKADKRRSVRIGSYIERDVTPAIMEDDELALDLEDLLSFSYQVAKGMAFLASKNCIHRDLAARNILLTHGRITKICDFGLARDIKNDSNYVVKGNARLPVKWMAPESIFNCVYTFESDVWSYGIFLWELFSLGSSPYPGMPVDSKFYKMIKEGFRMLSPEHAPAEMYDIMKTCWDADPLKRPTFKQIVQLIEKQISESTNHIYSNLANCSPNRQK

IC50, < 1 µM:
CCc1nc(C)c(CNc2nc(Cl)c(Cc3c[nH]c4ncc(Cl)cc34)s2)[nH]1 [P-0197, [4-Chloro-5-(5-chloro-1H-pyrrolo[2,3-b]pyridin-3-ylmethyl)-thiazol-2-yl]-(2-ethyl-5-methyl-3H-imidazol-4-ylmethyl)-amine]
COc1cccc(CNc2nc(Cl)c(Cc3c[nH]c4ncc(Cl)cc34)s2)n1 [P-0199, [4-Chloro-5-(5-chloro-1H-pyrrolo[2,3-b]pyridin-3-ylmethyl)-thiazol-2-yl]-(6-methoxy-pyridin-2-ylmethyl)-amine]
CCc1nc(C)c(CNc2nc(Cl)c(Cc3c[nH]c4ncccc34)s2)[nH]1 [P-0205, [4-Chloro-5-(1H-pyrrolo[2,3-b]pyridin-3-ylmethyl)-thiazol-2-yl]-(2-ethyl-5-methyl-3H-imidazol-4-ylmethyl)-amine]
Cc1cc(CNc2nc(Cl)c(Cc3c[nH]c4ncccc34)s2)sc1C [P-0208, [4-Chloro-5-(1H-pyrrolo[2,3-b]pyridin-3-ylmethyl)-thiazol-2-yl]-(4,5-dimethyl-thiophen-2-ylmethyl)-amine]
c1ccc(CCNc2ccc(Cc3c[nH]c4ncccc34)cn2)cc1 [P-0211, Phenethyl-[5-(1H-pyrrolo[2,3-b]pyridin-3-ylmethyl)-pyridin-2-yl]-amine]
Fc1ccc(CNc2ccc(Cc3c[nH]c4ncccc34)cn2)c(F)c1 [P-0212, (2,4-Difluoro-benzyl)-[5-(1H-pyrrolo[2,3-b]pyridin-3-ylmethyl)-pyridin-2-yl]-amine]
Fc1ccccc1CNc1ccc(Cc2c[nH]c3ncccc23)cn1 [P-0213, (2-Fluoro-benzyl)-[5-(1H-pyrrolo[2,3-b]pyridin-3-ylmethyl)-pyridin-2-yl]-amine]
Brc1cnccc1CNc1ccc(Cc2c[nH]c3ncccc23)cn1 [P-0214, (3-Bromo-pyridin-4-ylmethyl)-[5-(1H-pyrrolo[2,3-b]pyridin-3-ylmethyl)-pyridin-2-yl]-amine]
COc1ncccc1CNc1ccc(Cc2c[nH]c3ncccc23)cn1 [P-0215, (2-Methoxy-pyridin-3-ylmethyl)-[5-(1H-pyrrolo[2,3-b]pyridin-3-ylmethyl)-pyridin-2-yl]-amine]
Clc1ccccc1CNc1ccc(Cc2c[nH]c3ncccc23)cn1 [P-0216, (2-Chloro-benzyl)-[5-(1H-pyrrolo[2,3-b]pyridin-3-ylmethyl)-pyridin-2-yl]-amine]
Cc1ccccc1CNc1ccc(Cc2c[nH]c3ncccc23)cn1 [P-0217, (2-Methyl-benzyl)-[5-(1H-pyrrolo[2,3-b]pyridin-3-ylmethyl)-pyridin-2-yl]-amine]
Cn1c(CNc2ccc(Cc3c[nH]c4ncccc34)cn2)nc2ccccc21 [P-0218, (1-Methyl-1H-benzoimidazol-2-ylmethyl)-[5-(1H-pyrrolo[2,3-b]pyridin-3-ylmethyl)-pyridin-2-yl]-amine]
COc1ccc(CNc2ccc(Cc3c[nH]c4ncccc34)cn2)cn1 [P-0219, (6-Methoxy-pyridin-3-ylmethyl)-[5-(1H-pyrrolo[2,3-b]pyridin-3-ylmethyl)-pyridin-2-yl]-amine]
Fc1ccc(CNc2ccc(Cc3c[nH]c4ncccc34)cn2)c(Cl)c1 [P-0221, (2-Chloro-4-fluoro-benzyl)-[5-(1H-pyrrolo[2,3-b]pyridin-3-ylmethyl)-pyridin-2-yl]-amine]
COc1cncc(CNc2ccc(Cc3c[nH]c4ncccc34)cn2)c1 [P-0222, (5-Methoxy-pyridin-3-ylmethyl)-[5-(1H-pyrrolo[2,3-b]pyridin-3-ylmethyl)-pyridin-2-yl]-amine]
COc1cccc(CNc2ccc(Cc3c[nH]c4ncccc34)cn2)n1 [P-0224, (6-Methoxy-pyridin-2-ylmethyl)-[5-(1H-pyrrolo[2,3-b]pyridin-3-ylmethyl)-pyridin-2-yl]-amine]
Fc1ccc(CNc2ccc(Cc3c[nH]c4ncccc34)cn2)c(C(F)(F)F)c1 [P-0225, (4-Fluoro-2-trifluoromethyl-benzyl)-[5-(1H-pyrrolo[2,3-b]pyridin-3-ylmethyl)-pyridin-2-yl]-amine]
FC(F)(F)c1ccccc1CNc1ccc(Cc2c[nH]c3ncccc23)cn1 [P-0226, [5-(1H-Pyrrolo[2,3-b]pyridin-3-ylmethyl)-pyridin-2-yl]-(2-trifluoromethyl-benzyl)-amine]
c1cc(CNc2ccc(Cc3c[nH]c4ncccc34)cn2)nc(N2CCOCC2)c1 [P-0228, (6-Morpholin-4-yl-pyridin-2-ylmethyl)-[5-(1H-pyrrolo[2,3-b]pyridin-3-ylmethyl)-pyridin-2-yl]-amine]
Cc1cnc2[nH]cc(Cc3ccc(NCc4ccc(C(F)(F)F)nc4)nc3Cl)c2c1 [P-0234, [6-Chloro-5-(5-methyl-1H-pyrrolo[2,3-b]pyridin-3-ylmethyl)-pyridin-2-yl]-(6-trifluoromethyl-pyridin-3-ylmethyl)-amine]
Clc1cnc2[nH]cc(Cc3sc(NCc4ccncc4)nc3Cl)c2c1 [P-0237, [4-Chloro-5-(5-chloro-1H-pyrrolo[2,3-b]pyridin-3-ylmethyl)-thiazol-2-yl]-pyridin-4-ylmethyl-amine]
CCn1cc(CNc2nc(Cl)c(Cc3c[nH]c4ncc(Cl)cc34)s2)cn1 [P-0239, [4-Chloro-5-(5-chloro-1H-pyrrolo[2,3-b]pyridin-3-ylmethyl)-thiazol-2-yl]-(1-ethyl-1H-pyrazol-4-ylmethyl)-amine]
FC(F)(F)c1ccc(CNc2nc(Cl)c(Cc3c[nH]c4ncc(Cl)cc34)s2)cn1 [P-0242, [4-Chloro-5-(5-chloro-1H-pyrrolo[2,3-b]pyridin-3-ylmethyl)-thiazol-2-yl]-(6-trifluoromethyl-pyridin-3-ylmethyl)-amine]
Fc1cccc(Cl)c1CNc1nc(Cl)c(Cc2c[nH]c3ncc(Cl)cc23)s1 [P-0243, [4-Chloro-5-(5-chloro-1H-pyrrolo[2,3-b]pyridin-3-ylmethyl)-thiazol-2-yl]-(2-chloro-6-fluoro-benzyl)-amine]
Clc1cnc2[nH]cc(Cc3sc(NCCc4ccccc4)nc3Cl)c2c1 [P-0244, [4-Chloro-5-(5-chloro-1H-pyrrolo[2,3-b]pyridin-3-ylmethyl)-thiazol-2-yl]-phenethyl-amine]
Fc1ccc(CNc2nc(Cl)c(Cc3c[nH]c4ncc(Cl)cc34)s2)c(F)c1 [P-0245, [4-Chloro-5-(5-chloro-1H-pyrrolo[2,3-b]pyridin-3-ylmethyl)-thiazol-2-yl]-(2,4-difluoro-benzyl)-amine]
Fc1ccccc1CNc1nc(Cl)c(Cc2c[nH]c3ncc(Cl)cc23)s1 [P-0246, [4-Chloro-5-(5-chloro-1H-pyrrolo[2,3-b]pyridin-3-ylmethyl)-thiazol-2-yl]-(2-fluoro-benzyl)-amine]
